Results published in the kinase profiling compilation of Christmann-Franck et al. (2016).

Tests used:
Experiment in all cases: KINOMEscan competition binding
Details in all cases: compound 10.0 µM
[1] = tested on: RET (human), P07949 [M918T]
HCK (human) = HCK (human) (UniProt P08631)
PIK3CD (human) = PIK3CD (human) (UniProt O00329)
STK38 (human) = STK38 (human) (UniProt Q15208)
AKT3 (human) = AKT3 (human) (UniProt Q9Y243)
NIM1 (human) = NIM1 (human) (UniProt Q8IY84)
MAP3K6 (human) = MAP3K6 (human) (UniProt O95382)
STK38L (human) = STK38L (human) (UniProt Q9Y2H1)
PIK3C2G (human) = PIK3C2G (human) (UniProt O75747)
FRK (human) = FRK (human) (UniProt P42685)
SIK3 (human) = SIK3 (human) (UniProt Q9Y2K2)
PHKG2 (human) = PHKG2 (human) (UniProt P15735)
MYLK4 (human) = MYLK4 (human) (UniProt Q86YV6)
MYLK (human) = MYLK (human) (UniProt Q15746)
PKMYT1 (human) = PKMYT1 (human) (UniProt Q99640)
MAPKAPK5 (human) = MAPKAPK5 (human) (UniProt Q8IW41)
PRKD3 (human) = PRKD3 (human) (UniProt O94806)
[2] = tested on: EGFR (human), P00533 [T790M]
HIPK4 (human) = HIPK4 (human) (UniProt Q8NE63)
RPS6KA6 KD1 (human) = RPS6KA6 KD1 (human) (UniProt Q9UK32)
EPHA1 (human) = EPHA1 (human) (UniProt P21709)
ULK2 (human) = ULK2 (human) (UniProt Q8IYT8)
DAPK2 (human) = DAPK2 (human) (UniProt Q9UIK4)
SRPK1 (human) = SRPK1 (human) (UniProt Q96SB4)
PRKG1 (human) = PRKG1 (human) (UniProt Q13976)
EIF2AK1 (human) = EIF2AK1 (human) (UniProt Q9BQI3)
LIMK2 (human) = LIMK2 (human) (UniProt P53671)
EPHB2 (human) = EPHB2 (human) (UniProt P29323)
EPHB4 (human) = EPHB4 (human) (UniProt P54760)
DDR1 (human) = DDR1 (human) (UniProt Q08345)
RPS6KA4 KD2 (human) = RPS6KA4 KD2 (human) (UniProt O75676)
MAPK1 (human) = MAPK1 (human) (UniProt P28482)
MYLK2 (human) = MYLK2 (human) (UniProt Q9H1R3)

Sequence of EPHA1 (human) (P21709 whole entry, looked up): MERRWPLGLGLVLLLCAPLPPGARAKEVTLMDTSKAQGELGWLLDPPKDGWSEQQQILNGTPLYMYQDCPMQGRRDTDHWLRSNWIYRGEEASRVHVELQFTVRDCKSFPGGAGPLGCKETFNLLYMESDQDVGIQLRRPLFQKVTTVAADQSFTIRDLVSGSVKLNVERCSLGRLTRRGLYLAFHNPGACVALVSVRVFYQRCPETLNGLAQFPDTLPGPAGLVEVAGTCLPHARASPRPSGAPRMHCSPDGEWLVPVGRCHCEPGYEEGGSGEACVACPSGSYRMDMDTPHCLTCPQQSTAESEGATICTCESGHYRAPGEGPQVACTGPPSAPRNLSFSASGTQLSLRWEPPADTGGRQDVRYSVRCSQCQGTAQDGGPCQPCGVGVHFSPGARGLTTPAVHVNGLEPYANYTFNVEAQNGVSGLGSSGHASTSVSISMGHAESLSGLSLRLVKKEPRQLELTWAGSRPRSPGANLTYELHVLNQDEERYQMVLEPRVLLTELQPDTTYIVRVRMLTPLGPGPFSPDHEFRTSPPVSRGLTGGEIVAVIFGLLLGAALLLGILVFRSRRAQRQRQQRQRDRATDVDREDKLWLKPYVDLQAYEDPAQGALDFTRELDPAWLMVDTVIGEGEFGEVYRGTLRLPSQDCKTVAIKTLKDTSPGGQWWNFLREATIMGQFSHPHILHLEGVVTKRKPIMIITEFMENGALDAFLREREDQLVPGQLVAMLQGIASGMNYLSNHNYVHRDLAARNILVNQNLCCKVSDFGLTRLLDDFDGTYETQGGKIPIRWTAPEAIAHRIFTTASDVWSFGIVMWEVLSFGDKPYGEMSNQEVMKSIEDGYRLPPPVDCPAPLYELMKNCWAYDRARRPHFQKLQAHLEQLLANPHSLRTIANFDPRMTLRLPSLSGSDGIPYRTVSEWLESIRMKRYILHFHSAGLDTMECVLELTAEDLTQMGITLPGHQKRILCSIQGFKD
Sequence of RPS6KA6 KD1 (human) (Q9UK32 whole entry, looked up): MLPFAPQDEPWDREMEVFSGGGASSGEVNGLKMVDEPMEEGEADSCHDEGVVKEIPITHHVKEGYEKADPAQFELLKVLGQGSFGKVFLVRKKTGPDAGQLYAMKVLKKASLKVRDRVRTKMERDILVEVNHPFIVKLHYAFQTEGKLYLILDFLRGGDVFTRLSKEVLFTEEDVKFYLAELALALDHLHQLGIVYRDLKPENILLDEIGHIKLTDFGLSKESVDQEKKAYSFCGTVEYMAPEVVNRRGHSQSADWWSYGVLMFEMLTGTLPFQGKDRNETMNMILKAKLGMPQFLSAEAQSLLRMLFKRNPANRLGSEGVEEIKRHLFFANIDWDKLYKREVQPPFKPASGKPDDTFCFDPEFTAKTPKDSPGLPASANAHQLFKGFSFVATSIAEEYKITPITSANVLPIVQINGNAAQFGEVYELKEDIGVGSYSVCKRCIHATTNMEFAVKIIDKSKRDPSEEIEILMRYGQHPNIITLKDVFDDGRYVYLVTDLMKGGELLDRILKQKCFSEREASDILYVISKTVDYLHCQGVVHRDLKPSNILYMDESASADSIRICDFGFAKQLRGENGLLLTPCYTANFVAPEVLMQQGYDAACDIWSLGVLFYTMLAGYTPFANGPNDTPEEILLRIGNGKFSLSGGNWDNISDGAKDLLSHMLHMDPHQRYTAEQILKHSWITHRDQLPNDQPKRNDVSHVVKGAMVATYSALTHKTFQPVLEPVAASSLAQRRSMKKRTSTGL
Sequence of AKT3 (human) (Q9Y243 whole entry, looked up): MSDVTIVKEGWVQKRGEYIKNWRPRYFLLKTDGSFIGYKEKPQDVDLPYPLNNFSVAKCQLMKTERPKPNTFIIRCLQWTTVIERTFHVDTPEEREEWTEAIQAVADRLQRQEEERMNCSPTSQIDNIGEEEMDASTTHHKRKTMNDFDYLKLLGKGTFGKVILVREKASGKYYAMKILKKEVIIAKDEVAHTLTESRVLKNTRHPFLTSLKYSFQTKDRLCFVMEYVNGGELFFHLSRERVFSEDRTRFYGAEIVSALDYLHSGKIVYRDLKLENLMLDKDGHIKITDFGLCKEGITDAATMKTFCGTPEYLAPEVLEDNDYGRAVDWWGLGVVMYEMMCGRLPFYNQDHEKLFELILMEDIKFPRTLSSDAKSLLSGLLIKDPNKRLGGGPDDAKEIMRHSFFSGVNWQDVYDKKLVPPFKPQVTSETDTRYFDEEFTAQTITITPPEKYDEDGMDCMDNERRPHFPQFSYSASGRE
Sequence of MAPK1 (human) (P28482 whole entry, looked up): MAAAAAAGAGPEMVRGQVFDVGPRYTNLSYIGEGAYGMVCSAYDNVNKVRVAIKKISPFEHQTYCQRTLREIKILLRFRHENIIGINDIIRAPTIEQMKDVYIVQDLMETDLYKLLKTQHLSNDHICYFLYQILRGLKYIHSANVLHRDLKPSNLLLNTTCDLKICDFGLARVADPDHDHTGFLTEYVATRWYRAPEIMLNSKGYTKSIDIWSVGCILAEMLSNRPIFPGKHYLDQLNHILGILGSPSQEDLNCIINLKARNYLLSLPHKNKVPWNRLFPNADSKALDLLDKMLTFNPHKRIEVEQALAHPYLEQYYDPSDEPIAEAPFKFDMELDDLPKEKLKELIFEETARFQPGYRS
Sequence of EPHB2 (human) (P29323 whole entry, looked up): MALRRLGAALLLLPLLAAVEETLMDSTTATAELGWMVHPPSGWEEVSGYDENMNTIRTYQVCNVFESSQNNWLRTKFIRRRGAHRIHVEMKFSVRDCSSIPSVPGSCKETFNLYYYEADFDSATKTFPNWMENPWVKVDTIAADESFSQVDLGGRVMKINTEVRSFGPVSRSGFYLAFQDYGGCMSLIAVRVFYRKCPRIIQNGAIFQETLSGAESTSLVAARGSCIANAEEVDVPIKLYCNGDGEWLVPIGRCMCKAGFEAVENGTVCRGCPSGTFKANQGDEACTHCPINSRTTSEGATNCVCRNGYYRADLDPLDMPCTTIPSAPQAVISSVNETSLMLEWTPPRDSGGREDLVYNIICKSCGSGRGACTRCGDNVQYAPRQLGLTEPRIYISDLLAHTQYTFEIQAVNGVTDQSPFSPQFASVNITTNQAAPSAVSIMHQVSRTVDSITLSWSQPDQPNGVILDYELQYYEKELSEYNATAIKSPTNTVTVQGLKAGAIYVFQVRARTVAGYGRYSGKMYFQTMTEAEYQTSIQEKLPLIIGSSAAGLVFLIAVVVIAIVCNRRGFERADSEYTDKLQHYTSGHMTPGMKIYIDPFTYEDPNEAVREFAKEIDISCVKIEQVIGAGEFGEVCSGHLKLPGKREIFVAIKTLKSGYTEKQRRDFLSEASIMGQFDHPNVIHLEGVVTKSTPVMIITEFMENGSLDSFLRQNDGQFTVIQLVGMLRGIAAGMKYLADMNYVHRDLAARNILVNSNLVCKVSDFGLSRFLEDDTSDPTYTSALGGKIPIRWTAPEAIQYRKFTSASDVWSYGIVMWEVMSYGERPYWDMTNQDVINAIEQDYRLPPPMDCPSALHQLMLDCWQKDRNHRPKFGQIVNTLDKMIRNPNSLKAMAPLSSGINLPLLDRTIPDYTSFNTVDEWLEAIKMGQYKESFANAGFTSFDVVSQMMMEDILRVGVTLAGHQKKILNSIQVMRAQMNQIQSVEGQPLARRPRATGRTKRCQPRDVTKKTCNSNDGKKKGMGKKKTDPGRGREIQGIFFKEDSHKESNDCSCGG
Sequence of PIK3CD (human) (O00329 whole entry, looked up): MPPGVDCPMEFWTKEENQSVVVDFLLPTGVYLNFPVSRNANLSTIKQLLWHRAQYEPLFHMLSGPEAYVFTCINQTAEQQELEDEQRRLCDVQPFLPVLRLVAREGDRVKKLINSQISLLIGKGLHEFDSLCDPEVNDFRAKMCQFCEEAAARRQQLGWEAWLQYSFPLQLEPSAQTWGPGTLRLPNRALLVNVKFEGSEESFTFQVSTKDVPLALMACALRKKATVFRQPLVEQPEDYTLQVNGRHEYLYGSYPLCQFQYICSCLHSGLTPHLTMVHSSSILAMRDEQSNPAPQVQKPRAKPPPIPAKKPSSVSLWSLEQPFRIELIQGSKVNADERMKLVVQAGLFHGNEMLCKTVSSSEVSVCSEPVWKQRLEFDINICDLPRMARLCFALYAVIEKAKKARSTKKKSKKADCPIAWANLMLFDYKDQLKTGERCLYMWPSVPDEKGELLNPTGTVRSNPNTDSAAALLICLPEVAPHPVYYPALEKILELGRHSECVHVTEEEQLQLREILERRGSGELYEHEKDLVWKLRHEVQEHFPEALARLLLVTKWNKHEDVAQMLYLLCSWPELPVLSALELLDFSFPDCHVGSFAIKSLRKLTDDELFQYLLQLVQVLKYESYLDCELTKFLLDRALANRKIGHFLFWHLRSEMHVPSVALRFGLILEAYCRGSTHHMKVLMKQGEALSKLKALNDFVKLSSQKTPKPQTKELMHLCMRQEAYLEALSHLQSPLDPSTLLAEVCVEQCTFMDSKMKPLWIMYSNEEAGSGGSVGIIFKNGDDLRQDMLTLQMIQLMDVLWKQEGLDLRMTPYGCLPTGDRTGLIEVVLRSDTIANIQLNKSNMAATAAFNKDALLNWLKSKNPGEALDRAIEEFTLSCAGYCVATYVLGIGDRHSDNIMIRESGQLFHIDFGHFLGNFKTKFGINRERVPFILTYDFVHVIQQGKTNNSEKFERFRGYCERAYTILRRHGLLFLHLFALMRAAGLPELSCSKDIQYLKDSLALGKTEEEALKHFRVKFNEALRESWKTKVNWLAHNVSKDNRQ
Sequence of MYLK4 (human) (Q86YV6 whole entry, looked up): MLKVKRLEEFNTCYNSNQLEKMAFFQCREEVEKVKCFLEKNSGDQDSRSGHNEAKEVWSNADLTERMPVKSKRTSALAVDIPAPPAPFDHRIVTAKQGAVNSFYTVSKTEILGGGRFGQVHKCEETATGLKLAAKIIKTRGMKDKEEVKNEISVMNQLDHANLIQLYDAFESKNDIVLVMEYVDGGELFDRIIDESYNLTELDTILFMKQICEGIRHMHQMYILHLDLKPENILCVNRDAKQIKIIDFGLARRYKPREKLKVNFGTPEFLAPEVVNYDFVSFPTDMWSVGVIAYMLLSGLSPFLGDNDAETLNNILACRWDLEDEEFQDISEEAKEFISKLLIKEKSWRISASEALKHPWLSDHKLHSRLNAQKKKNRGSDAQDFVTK

| Compound | kinase still bound, per cent of control [1] | kinase still bound, per cent of control (HCK (human)) | kinase still bound, per cent of control (PIK3CD (human)) | kinase still bound, per cent of control (STK38 (human)) | kinase still bound, per cent of control (AKT3 (human)) | kinase still bound, per cent of control (NIM1 (human)) | kinase still bound, per cent of control (MAP3K6 (human)) | kinase still bound, per cent of control (STK38L (human)) | kinase still bound, per cent of control (PIK3C2G (human)) | kinase still bound, per cent of control (FRK (human)) | kinase still bound, per cent of control (SIK3 (human)) | kinase still bound, per cent of control (PHKG2 (human)) | kinase still bound, per cent of control (MYLK4 (human)) | kinase still bound, per cent of control (MYLK (human)) | kinase still bound, per cent of control (PKMYT1 (human)) | kinase still bound, per cent of control (MAPKAPK5 (human)) | kinase still bound, per cent of control (PRKD3 (human)) | kinase still bound, per cent of control [2] | kinase still bound, per cent of control (HIPK4 (human)) | kinase still bound, per cent of control (RPS6KA6 KD1 (human)) | also measured |
| --- | --- | --- | --- | --- | --- | --- | --- | --- | --- | --- | --- | --- | --- | --- | --- | --- | --- | --- | --- | --- | --- |
| COc1ccc(N(C(=O)Oc2c(C)cccc2C)c2ccnc(Nc3ccc(N4CCN(C)CC4)cc3)n2)c(OC)c1 | 0.1% | 0.15% | 92% | 100% | 100% | 100% | 93% | 100% | 98% | 0% | 22% | 100% | 100% | 100% | 100% | 100% | 11% | 2.2% | 8.8% | 40% | kinase still bound, per cent of control (EPHA1 (human)): 0%; kinase still bound, per cent of control (ULK2 (human)): 38%; kinase still bound, per cent of control (DAPK2 (human)): 100%; kinase still bound, per cent of control (SRPK1 (human)): 23%; kinase still bound, per cent of control (PRKG1 (human)): 100%; kinase still bound, per cent of control (EIF2AK1 (human)): 100%; kinase still bound, per cent of control (LIMK2 (human)): 0%; kinase still bound, per cent of control (EPHB2 (human)): 0%; kinase still bound, per cent of control (EPHB4 (human)): 0%; kinase still bound, per cent of control (DDR1 (human)): 0.25%; kinase still bound, per cent of control (RPS6KA4 KD2 (human)): 100%; kinase still bound, per cent of control (MAPK1 (human)): 87%; kinase still bound, per cent of control (MYLK2 (human)): 0.95% |
| CN(C)C/C=C/C(=O)Nc1ccc(C(=O)Nc2cccc(Nc3nccc(-c4cccnc4)n3)c2)cc1 | 70% | 100% | 91% | 90% | 100% | 94% | 86% | 100% | 100% | 100% | 64% | 56% | 36% | 64% | 100% | 100% | 94% | 65% | 8.6% | 51% | kinase still bound, per cent of control (EPHA1 (human)): 76%; kinase still bound, per cent of control (ULK2 (human)): 99%; kinase still bound, per cent of control (DAPK2 (human)): 81%; kinase still bound, per cent of control (SRPK1 (human)): 26%; kinase still bound, per cent of control (PRKG1 (human)): 100%; kinase still bound, per cent of control (EIF2AK1 (human)): 100%; kinase still bound, per cent of control (LIMK2 (human)): 92%; kinase still bound, per cent of control (EPHB2 (human)): 100%; kinase still bound, per cent of control (EPHB4 (human)): 100%; kinase still bound, per cent of control (DDR1 (human)): 100%; kinase still bound, per cent of control (RPS6KA4 KD2 (human)): 80%; kinase still bound, per cent of control (MAPK1 (human)): 77%; kinase still bound, per cent of control (MYLK2 (human)): 53% |
| O=C(Nc1cccc(Nc2ncc(Br)c(NCCc3cnc[nH]3)n2)c1)N1CCCC1 | 0.05% | 42% | 84% | 35% | 100% | 0.05% | 49% | 69% | 25% | 46% | 7% | 8.9% | 6.8% | 34% | 100% | 28% | 0.5% | 2% | 2% | 0.6% | kinase still bound, per cent of control (EPHA1 (human)): 35%; kinase still bound, per cent of control (ULK2 (human)): 0.3%; kinase still bound, per cent of control (DAPK2 (human)): 22%; kinase still bound, per cent of control (SRPK1 (human)): 4.2%; kinase still bound, per cent of control (PRKG1 (human)): 72%; kinase still bound, per cent of control (EIF2AK1 (human)): 100%; kinase still bound, per cent of control (LIMK2 (human)): 59%; kinase still bound, per cent of control (EPHB2 (human)): 100%; kinase still bound, per cent of control (EPHB4 (human)): 78%; kinase still bound, per cent of control (DDR1 (human)): 100%; kinase still bound, per cent of control (RPS6KA4 KD2 (human)): 0.95%; kinase still bound, per cent of control (MAPK1 (human)): 77%; kinase still bound, per cent of control (MYLK2 (human)): 0.35% |
